Data reported in patent US12091402B2 (Avilar Therapeutics, Inc., priority 2021, dated 2024).
Read-outs that look alike come from different tables or passages of the source. *1 amine or outer side, *2 acyl side, *3 side chain or, on linkers, in order; H or OH if unused. Where a SMILES comes first, the peptide text is derived from it. Bridges are numbered along the chain shown (N, C = ends). [ ]: non-standard residue; d: D form. The star is where a group is joined. X2 = O=C(CCOCC(COCCC(=O)NCCOCCOCCOCCOC[C@H]1OC[C@H](Nc2cncc(C(F)(F)F)n2)[C@@H](O)[C@H]1O)NCC(=O)*)NCCOCCOCCOCCOC[C@H]1OC[C@H](Nc2cncc(C(F)(F)F)n2)[C@@H](O)[C@H]1O; X1 = O=C([C@@H]1C[C@H](N[*:3])CN1[*:1])[*:2]

How the values were obtained:
[1] = molecular target: T1, ASGPR (Homo sapiens, UniProt P07306); assay: Affinity to ASGPR by surface plasmon resonance (SPR)
T1 sequence (P07306 1-291): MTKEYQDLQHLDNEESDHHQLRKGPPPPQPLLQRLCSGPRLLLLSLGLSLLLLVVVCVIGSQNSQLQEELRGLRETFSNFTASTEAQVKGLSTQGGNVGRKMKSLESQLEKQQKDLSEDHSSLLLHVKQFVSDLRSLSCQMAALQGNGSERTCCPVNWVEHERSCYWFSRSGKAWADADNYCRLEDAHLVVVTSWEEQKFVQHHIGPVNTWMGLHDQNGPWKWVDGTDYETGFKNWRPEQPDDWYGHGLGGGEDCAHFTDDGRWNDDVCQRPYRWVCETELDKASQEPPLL

[2] = molecular target: T2, ASGPR receptor on the cell surface (HepG2 cells) (Homo sapiens, UniProt P07306); assay: Ternary complex formation assay (flow cytometry, HepG2); format: cell-based
T2 construct: host or cells: HepG2
T2 sequence (P07306 1-291): T1 sequence (P07306 1-291)
T2 sequence (P07307 1-311 partner): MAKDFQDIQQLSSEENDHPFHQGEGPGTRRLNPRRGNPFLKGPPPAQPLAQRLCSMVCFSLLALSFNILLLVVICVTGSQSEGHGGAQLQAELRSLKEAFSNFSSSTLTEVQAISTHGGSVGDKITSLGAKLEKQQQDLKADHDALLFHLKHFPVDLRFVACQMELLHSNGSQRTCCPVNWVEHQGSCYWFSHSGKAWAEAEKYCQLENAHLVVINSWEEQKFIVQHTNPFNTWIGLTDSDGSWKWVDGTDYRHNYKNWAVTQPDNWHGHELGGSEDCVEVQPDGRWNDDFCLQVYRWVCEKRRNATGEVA
How it was run: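 HepG2 cells (1×10^5/well) incubated 1 h at 4 °C with 100 nM AF488-labeled anti-human IgG plus serial IgG-based degrader, or 100 nM AF488 rabbit anti-DNP plus serial DNP-based degrader. After washing, cell-associated AF488 MFI read by flow cytometry; peak MFI marks optimal degrader concentration for ternary complex.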

[3] = molecular target: IgG; assay: Affinity to IgG by surface plasmon resonance (SPR); format: binding
Experimental: Immobilization levels ranging from 1000-1300 resonance units (RU) are obtained. The running buffer is 10 mM HEPES, pH 7.4, 400 mM NaCl, 0.005% P20, […].

[4] = test system: HepG2 cells; assay: Cellular uptake assay of AF488-labeled antibody (HepG2); format: cell-based
How it was run: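 HepG2 cells given 100 nM AF488-labeled human IgG or DNP antibody plus serial dilutions of matching degrader (0.1% DMSO final), 6 h at 37° C. Methanol-fixed, DAPI-stained and imaged by high-content analysis. Value is the fraction of AF488-positive cells over total DAPI-counted cells.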

[5] = HepG2 cells, read-out: Uptake EC50
[6] = HepG2 cells, ternary complex formation, read-out: TCF EC50

EC50 [4, 5] [nM]	EC50 [2, 6] [nM]	SMILES	Kd [1] [nM]	EC50 [2] [nM]	Kd ([3]; SPR, read-out: IgG KD) [nM]	EC50 ([4]; HepG2 cells, 100 nM AF488-labeled antibody, 37° C. for 6 hours, class symbols, read-out: Uptake Assay EC50) [nM]	EC50 ([2]; TCF EC50, HepG2 cells, ternary complex formation) [nM]	Kd ([3]; read-out: IgG SPR Binding Kd) [nM]	EC50 ([4]; read-out: Uptake Assay EC50) [nM]
–	–	CC(C)C[C@@H]1NC(=O)[C@H](Cc2c[nH]cn2)NC(=O)[C@H](Cc2c[nH]c3ccccc23)NC(=O)[C@H](C)NC(=O)[C@@H]2CSSC[C@H](NC(=O)[C@H](Cc3c[nH]c4ccccc34)NC(=O)[C@H](C(C)C)NC(=O)[C@H](CC(C)C)NC(=O)[C@H](CCC(=O)O)NC(=O)CNC1=O)C(=O)N[C@@H]([C@@H](C)O)C(=O)N1CCC[C@@H]1C(=O)N1C[C@@H](NC(=O)CNC(COCCC(=O)NCCOCCOCCOCCOC[C@H]3OC[C@H](Nc4cncc(C(F)(F)F)n4)[C@@H](O)[C@H]3O)COCCC(=O)NCCOCCOCCOCCOC[C@H]3OC[C@H](Nc4cncc(C(F)(F)F)n4)[C@@H](O)[C@H]3O)C[C@H]1C(=O)N[C@@H](CC(=O)O)C(=O)N2 [Compound 45]	< 100	< 100	< 100	< 100	–	–	–
–	–	CC(C)C[C@@H]1NC(=O)[C@H](Cc2c[nH]cn2)NC(=O)[C@H](Cc2c[nH]c3ccccc23)NC(=O)[C@H](C)NC(=O)[C@@H](NC(=O)[C@H](CC(=O)O)NCCOCCOCCOCCOCCNC(=O)CCCc2cn(CCCCCC(=O)NC(COCCC(=O)NCCOCCOCCOCCOC[C@H]3OC[C@H](Nc4nccc(C(F)(F)F)n4)[C@@H](O)[C@H]3O)COCCC(=O)NCCOCCOCCOCCOC[C@H]3OC[C@H](Nc4nccc(C(F)(F)F)n4)[C@@H](O)[C@H]3O)nn2)CSSC[C@@H](C(=O)N[C@H](C(N)=O)[C@@H](C)O)NC(=O)[C@H](Cc2c[nH]c3ccccc23)NC(=O)[C@H](C(C)C)NC(=O)[C@H](CC(C)C)NC(=O)[C@H](CCC(=O)O)NC(=O)CNC1=O [Compound 10]	< 100	< 100	–	–	–	< 100	< 100
< 100	< 100	CC(C)C[C@@H]1NC(=O)[C@H](Cc2cnc[nH]2)NC(=O)[C@H](Cc2c[nH]c3ccccc23)NC(=O)[C@H](C)NC(=O)[C@@H]2CSSC[C@H](NC(=O)[C@H](Cc3c[nH]c4ccccc34)NC(=O)[C@H](C(C)C)NC(=O)[C@H](CC(C)C)NC(=O)[C@H](CCC(=O)O)NC(=O)CNC1=O)C(=O)N[C@@H]([C@@H](C)O)C(=O)N1CCC[C@@H]1C(=O)N1C[C@@H](NC(=O)COc3ccc(CC(=O)NC[C@H]4OC[C@H](Nc5cncc(C(F)(F)F)n5)[C@@H](O)[C@H]4O)cc3)C[C@H]1C(=O)N[C@@H](CC(=O)O)C(=O)N2 [Compound 61]	< 100	–	< 100	–	–	–	–
< 100	< 100	CC(C)C[C@@H]1NC(=O)[C@H](Cc2cnc[nH]2)NC(=O)[C@H](Cc2c[nH]c3ccccc23)NC(=O)[C@H](C)NC(=O)[C@@H]2CSSC[C@H](NC(=O)[C@H](Cc3c[nH]c4ccccc34)NC(=O)[C@H](C(C)C)NC(=O)[C@H](CC(C)C)NC(=O)[C@H](CCC(=O)O)NC(=O)CNC1=O)C(=O)N[C@@H]([C@@H](C)O)C(=O)N1CCC[C@@H]1C(=O)N1C[C@@H](NC(=O)c3ccc(N4CCC(CN5CCN(C[C@H]6OC[C@H](Nc7cncc(C(F)(F)F)n7)[C@@H](O)[C@H]6O)CC5)CC4)nn3)C[C@H]1C(=O)N[C@@H](CC(=O)O)C(=O)N2 [Compound 66]	< 100	–	< 100	–	–	–	–

SMILES	EC50 [4, 5] [nM]	EC50 [2, 6] [nM]	Kd [1] [nM]	EC50 [2] [nM]	Kd ([3]; SPR, read-out: IgG KD) [nM]	EC50 ([4]; HepG2 cells, 100 nM AF488-labeled antibody, 37° C. for 6 hours, class symbols, read-out: Uptake Assay EC50) [nM]	EC50 ([2]; TCF EC50, HepG2 cells, ternary complex formation) [nM]	Kd ([3]; read-out: IgG SPR Binding Kd) [nM]	EC50 ([4]; read-out: Uptake Assay EC50) [nM]
CC(C)C[C@@H]1NC(=O)[C@H](Cc2c[nH]cn2)NC(=O)[C@H](Cc2c[nH]c3ccccc23)NC(=O)[C@H](C)NC(=O)[C@@H]2CSSC[C@H](NC(=O)[C@H](Cc3c[nH]c4ccccc34)NC(=O)[C@H](C(C)C)NC(=O)[C@H](CC(C)C)NC(=O)[C@H](CCC(=O)N(C)C)NC(=O)CNC1=O)C(=O)N[C@@H]([C@@H](C)O)C(=O)N1CCC[C@@H]1C(=O)N1C[C@@H](NC(=O)CNC(COCCC(=O)NCCOCCOCCOCCOC[C@H]3OC[C@H](Nc4cncc(C(F)(F)F)n4)[C@@H](O)[C@H]3O)COCCC(=O)NCCOCCOCCOCCOC[C@H]3OC[C@H](Nc4cncc(C(F)(F)F)n4)[C@@H](O)[C@H]3O)C[C@H]1C(=O)N[C@@H](CC(N)=O)C(=O)N2 [Compound 78] (cyclo(AWHLGE(NMe2)LVWCT[dP][X1](X2)NC); disulfide 10-15)	< 100	–	< 100	–	< 100	–	< 100	–	–
